Experimental data from patent US9573987B2 (priority 2011, dated 2017).
*1 amine or outer side, *2 acyl side, *3 side chain or, on linkers, in order; H or OH if unused. Where a SMILES comes first, the peptide text is derived from it. Side-chain parts run from the residue outwards. [ ]: non-standard residue; d: D form. The star is where a group is joined. Phe(4-NH2) = Nc1ccc(C[C@H](N)C(=O)O)cc1; εLys = N[C@@H](CCCCN[*:1])C(=O)[*:2]; Isobutyryl(2-OH) = CC(C)(O)C(=O)*; NMeA = CN[C@@H](C)C(=O)O; Sar = CNCC(=O)O

Experiments:
[1] = Dipeptide half life on IGF1 (p-NH2-F)A19 analogs in PBS; type: physicochemical; settings: buffer
Protocol: Accordingly, the IGF1A chain alone was determined to be a good model for the study of pro-drug half life on IGF1 B:A (Y^B16L^B17) analog peptides. […] For simplicity, prodrug half lives were determined using only the IGF1 A chain in the absence of the B chain. The half lives of each propeptide was determined as described in Example 5.

IGF-1 receptor [2] = molecular target: T1, IGF-1 receptor (Homo sapiens, UniProt P08069); experiment: IGF-1 receptor phosphorylation assay, receptor transfected HEK293 cells; type: cell-based; parameters: expressed in transfected cells; host or cells: HEK293; settings: Table 10
Protocol: Color development was stopped 5 min later by adding 0.05 ml 1 N HCl. Absorbance at 450 nm was measured on Titertek Multiscan MCC340 (ThermoFisher, Pittsburgh, Pa.).

insulin receptor = insulin receptor (Homo sapiens, UniProt P06213); experiment: Insulin receptor binding assay (competition, scintillation proximity); parameters: expressed in transfected cells; plasma membrane fragments
IGF-1 receptor [3] = molecular target: T1, IGF-1 receptor; experiment: IGF-1 receptor binding assay (competition, scintillation proximity); parameters: expressed in transfected cells; plasma membrane fragments; settings: Table 9

T1 sequence (P08069 31-736 limits assumed): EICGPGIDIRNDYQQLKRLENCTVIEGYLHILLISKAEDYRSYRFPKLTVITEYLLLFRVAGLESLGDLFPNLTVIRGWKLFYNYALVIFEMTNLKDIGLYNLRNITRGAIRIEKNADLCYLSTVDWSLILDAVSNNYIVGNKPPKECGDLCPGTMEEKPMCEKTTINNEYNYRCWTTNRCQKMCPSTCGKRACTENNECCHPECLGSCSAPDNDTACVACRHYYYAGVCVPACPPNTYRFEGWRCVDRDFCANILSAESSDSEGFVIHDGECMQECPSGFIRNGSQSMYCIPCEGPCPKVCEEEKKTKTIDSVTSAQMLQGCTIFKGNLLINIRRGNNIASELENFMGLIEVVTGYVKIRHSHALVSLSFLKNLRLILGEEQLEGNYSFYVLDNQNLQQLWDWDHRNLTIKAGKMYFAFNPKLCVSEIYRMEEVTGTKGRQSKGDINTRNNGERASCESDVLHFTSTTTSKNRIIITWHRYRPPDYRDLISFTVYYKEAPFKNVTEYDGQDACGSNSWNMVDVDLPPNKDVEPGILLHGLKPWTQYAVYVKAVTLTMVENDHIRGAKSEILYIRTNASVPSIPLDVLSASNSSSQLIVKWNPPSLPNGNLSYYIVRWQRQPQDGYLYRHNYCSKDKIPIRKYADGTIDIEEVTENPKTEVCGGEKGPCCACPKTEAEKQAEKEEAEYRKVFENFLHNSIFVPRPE
T1 sequence (P08069 741-1367 partner limits assumed): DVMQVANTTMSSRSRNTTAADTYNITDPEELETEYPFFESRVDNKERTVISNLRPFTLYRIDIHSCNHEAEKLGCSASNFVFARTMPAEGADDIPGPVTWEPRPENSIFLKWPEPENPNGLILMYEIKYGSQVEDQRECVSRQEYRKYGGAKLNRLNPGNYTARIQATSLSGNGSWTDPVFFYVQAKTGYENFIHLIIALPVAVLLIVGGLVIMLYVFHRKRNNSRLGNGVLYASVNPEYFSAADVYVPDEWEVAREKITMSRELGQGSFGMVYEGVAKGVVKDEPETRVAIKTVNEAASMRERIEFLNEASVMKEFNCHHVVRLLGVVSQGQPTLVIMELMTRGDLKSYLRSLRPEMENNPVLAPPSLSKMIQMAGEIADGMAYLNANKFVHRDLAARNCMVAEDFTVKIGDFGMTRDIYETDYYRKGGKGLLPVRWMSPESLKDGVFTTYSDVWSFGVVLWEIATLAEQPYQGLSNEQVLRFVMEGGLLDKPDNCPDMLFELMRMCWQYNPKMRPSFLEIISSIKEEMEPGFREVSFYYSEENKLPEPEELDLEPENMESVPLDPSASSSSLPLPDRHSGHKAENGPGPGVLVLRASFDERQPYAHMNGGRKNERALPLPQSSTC
Sequence of insulin receptor (P06213 28-758 limits assumed): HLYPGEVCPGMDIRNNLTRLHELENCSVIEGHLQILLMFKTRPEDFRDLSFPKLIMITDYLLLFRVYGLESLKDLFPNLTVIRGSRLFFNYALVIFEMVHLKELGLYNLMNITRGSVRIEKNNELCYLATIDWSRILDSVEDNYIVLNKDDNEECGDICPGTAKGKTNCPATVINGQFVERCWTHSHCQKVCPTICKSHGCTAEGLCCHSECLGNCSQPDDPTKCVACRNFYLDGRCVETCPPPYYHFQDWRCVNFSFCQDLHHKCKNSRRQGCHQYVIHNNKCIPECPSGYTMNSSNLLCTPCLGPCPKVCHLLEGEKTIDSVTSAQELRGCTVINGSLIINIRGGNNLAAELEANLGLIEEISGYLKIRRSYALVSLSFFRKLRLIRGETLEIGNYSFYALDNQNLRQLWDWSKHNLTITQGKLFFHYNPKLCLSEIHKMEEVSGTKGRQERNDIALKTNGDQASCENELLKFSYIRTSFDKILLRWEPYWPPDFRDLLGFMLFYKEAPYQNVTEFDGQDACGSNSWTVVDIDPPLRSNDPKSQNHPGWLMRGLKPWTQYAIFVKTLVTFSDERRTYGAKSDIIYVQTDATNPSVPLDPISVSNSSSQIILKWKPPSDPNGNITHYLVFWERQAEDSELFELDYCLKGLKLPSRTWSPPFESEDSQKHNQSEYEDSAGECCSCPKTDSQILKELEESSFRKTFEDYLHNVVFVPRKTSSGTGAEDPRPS
Sequence of insulin receptor (P06213 763-1382 partner limits assumed): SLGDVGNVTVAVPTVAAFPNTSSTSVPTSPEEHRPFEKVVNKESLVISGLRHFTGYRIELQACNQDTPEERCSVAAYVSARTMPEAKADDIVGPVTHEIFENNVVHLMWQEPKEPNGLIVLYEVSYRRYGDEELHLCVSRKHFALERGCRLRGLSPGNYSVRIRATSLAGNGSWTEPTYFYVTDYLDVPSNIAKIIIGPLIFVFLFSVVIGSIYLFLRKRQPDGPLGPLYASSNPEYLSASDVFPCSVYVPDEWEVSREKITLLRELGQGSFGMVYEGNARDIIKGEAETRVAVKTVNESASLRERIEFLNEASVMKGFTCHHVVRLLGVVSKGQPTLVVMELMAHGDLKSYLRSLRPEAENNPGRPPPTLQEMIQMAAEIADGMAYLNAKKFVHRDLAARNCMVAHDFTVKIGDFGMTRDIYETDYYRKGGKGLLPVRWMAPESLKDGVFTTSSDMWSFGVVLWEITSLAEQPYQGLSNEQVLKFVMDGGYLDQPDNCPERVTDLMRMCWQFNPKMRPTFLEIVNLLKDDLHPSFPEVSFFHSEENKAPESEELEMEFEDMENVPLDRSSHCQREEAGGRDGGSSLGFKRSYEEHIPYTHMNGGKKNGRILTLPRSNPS

half-life ([1]; Half Life (hr)) [h] | half-life ([1]; Half Life (hr) PBS) [h] | IGF-1 Receptor % IGF (IGF-1 receptor [2]) [%] | EC50 (IGF-1 receptor [2]; total phosphorylation) [nM] | Ratio (insulin receptor; IGF-1 receptor IC50 over insulin receptor IC50) | Insulin Receptor % insulin (in test) (insulin receptor; Table 9) [%] | IGF-1 Receptor % IGF-1 (in test) (IGF-1 receptor [3]) [%] | SMILES
165 | 165 | – | – | – | – | – | CC[C@H](C)[C@H](NC(=O)CN)C(=O)N[C@H](C(=O)N[C@@H](CC(=O)O)C(=O)N[C@@H](CCC(=O)O)C(=O)N[C@@H](C)C(=O)N[C@@H](C)C(=O)N[C@@H](Cc1ccccc1)C(=O)N[C@@H](CCCNC(=N)N)C(=O)N[C@@H](CO)C(=O)N[C@@H](C)C(=O)N[C@@H](CC(=O)O)C(=O)N[C@@H](CC(C)C)C(=O)N[C@@H](CCCNC(=N)N)C(=O)N[C@@H](CCCNC(=N)N)C(=O)N[C@@H](CC(C)C)C(=O)N[C@@H](CCC(=O)O)C(=O)N[C@@H](CCSC)C(=O)N[C@@H](Cc1ccc(NC(=O)[C@@H]2CCCN2C(=O)C(C)(C)O)cc1)C(=O)N[C@@H](C)C(=O)N[C@@H](C)C(N)=O)C(C)C [AiBOH Pro] (H-GIVDEAAFRSADLRRLEM[Phe(4-NH2)]([Pro-Isobutyryl(2-OH)])AA-NH2; N-terminus assumed)
2.3 | 2.3 | – | – | – | – | – | CC[C@H](C)[C@H](NC(=O)CN)C(=O)N[C@H](C(=O)N[C@@H](CC(=O)O)C(=O)N[C@@H](CCC(=O)O)C(=O)N[C@@H](C)C(=O)N[C@@H](C)C(=O)N[C@@H](Cc1ccccc1)C(=O)N[C@@H](CCCNC(=N)N)C(=O)N[C@@H](CO)C(=O)N[C@@H](C)C(=O)N[C@@H](CC(=O)O)C(=O)N[C@@H](CC(C)C)C(=O)N[C@@H](CCCNC(=N)N)C(=O)N[C@@H](CCCNC(=N)N)C(=O)N[C@@H](CC(C)C)C(=O)N[C@@H](CCC(=O)O)C(=O)N[C@@H](CCSC)C(=O)N[C@@H](Cc1ccc(NC(=O)CN(C)C(=O)C(C)(C)O)cc1)C(=O)N[C@@H](C)C(=O)N[C@@H](C)C(N)=O)C(C)C [AiBOH Sar] (H-GIVDEAAFRSADLRRLEM[Phe(4-NH2)]([Sar-Isobutyryl(2-OH)])AA-NH2; N-terminus assumed)
– | – | 7.1 | 12.2 | 29.1 | 479.0 | 11.2 | CC[C@H](C)[C@H](NC(=O)CN)C(=O)N[C@H](C(=O)N[C@@H](CC(=O)O)C(=O)N[C@@H](CCC(=O)O)C(=O)N[C@H]1CSSC[C@@H]2NC(=O)[C@H](CO)NC(=O)[C@H](CCCNC(=N)N)NC(=O)[C@H](Cc3ccccc3)NC(=O)[C@H](CSSC[C@H](NC(=O)[C@H](CC(C)C)NC(=O)[C@H](Cc3c[nH]cn3)NC(=O)[C@H](CCC(=O)O)NC(=O)[C@@H]3CCCN3C(=O)CN)C(=O)NCC(=O)N[C@@H](C)C(=O)N[C@@H](CC(=O)O)C(=O)N[C@@H](CC(C)C)C(=O)N[C@@H](C(C)C)C(=O)N[C@@H](CC(=O)O)C(=O)N[C@@H](C)C(=O)N[C@@H](CC(C)C)C(=O)N[C@@H](Cc3ccc(O)cc3)C(=O)N[C@@H](CC(C)C)C(=O)N[C@@H](C(C)C)C(=O)N[C@H](C(=O)NCC(=O)N[C@@H](CC(=O)O)C(=O)N[C@@H](CCCNC(=N)N)C(=O)NCC(=O)N[C@@H](Cc3ccccc3)C(=O)N[C@@H](Cc3ccc(O)cc3)C(N)=O)CSSC[C@@H](C(=O)N[C@@H](C)C(N)=O)NC(=O)[C@H](Cc3ccc(O)cc3)NC(=O)[C@H](CCSC)NC(=O)[C@H](CCC(=O)O)NC(=O)[C@H](CC(C)C)NC(=O)[C@H](CCCNC(=N)N)NC(=O)[C@H](CCCNC(=N)N)NC(=O)[C@H](CC(C)C)NC(=O)[C@H](CC(=O)O)NC2=O)NC1=O)C(C)C [IGF-1 A:B (H5D10Y16L17) DPI]
23.6 | 23.6 | – | – | – | – | – | CC[C@H](C)[C@H](NC(=O)CN)C(=O)N[C@H](C(=O)N[C@@H](CC(=O)O)C(=O)N[C@@H](CCC(=O)O)C(=O)N[C@@H](C)C(=O)N[C@@H](C)C(=O)N[C@@H](Cc1ccccc1)C(=O)N[C@@H](CCCNC(=N)N)C(=O)N[C@@H](CO)C(=O)N[C@@H](C)C(=O)N[C@@H](CC(=O)O)C(=O)N[C@@H](CC(C)C)C(=O)N[C@@H](CCCNC(=N)N)C(=O)N[C@@H](CCCNC(=N)N)C(=O)N[C@@H](CC(C)C)C(=O)N[C@@H](CCC(=O)O)C(=O)N[C@@H](CCSC)C(=O)N[C@@H](Cc1ccc(NC(=O)[C@H](C)N(C)C(=O)[C@@H](N)CCCCNC(C)=O)cc1)C(=O)N[C@@H](C)C(=O)N[C@@H](C)C(N)=O)C(C)C [K(acetyl) N-methyl Ala] (H-GIVDEAAFRSADLRRLEM[Phe(4-NH2)]([NMeA-εLys-Ac])AA-NH2; N-terminus assumed)
